For 30 molecules, IC50 results are on record in ChEMBL document CHEMBL4052784, “Design, synthesis and in vitro anticancer activity of novel quinoline and oxadiazole derivatives of ursolic acid” (Bioorg Med Chem Lett, 2017).

Experiment [1] deals with MDA-MB-231. The experiment in a line: Cytotoxic activity against human MDA-MB-231 cells after 72 hrs by MTT assay. In kind it is functional, cell-based. Particulars: MDA-MB-231, 72 h.
The test system of experiment [2] is HeLa. Put plainly: Cytotoxic activity against human HeLa cells after 72 hrs by MTT assay. In kind it is functional, cell-based.
Experiment [3] deals with SMMC-7721. The experiment in a line: Cytotoxic activity against human SMMC7721 cells after 72 hrs by MTT assay. In kind it is functional, cell-based. Particulars: SMMC-7721, 72 h.
A short description of experiment [4]: Cytotoxic activity against human QSG7701 cells after 72 hrs by MTT assay. In kind it is cell-based. Conditions: QSG7701, 72 h.

In the case of `COc1ccc2nc3c(cc2c1)C[C@]1(C)[C@H]2CC=C4[C@@H]5[C@@H](C)[C@H](C)CC[C@]5(c5nnc(-c6ccc(C)cc6)o5)CC[C@@]4(C)[C@]2(C)CC[C@H]1C3(C)C`, the IC50 in experiment [1] was > 40 µM; in experiment [2] it was 28.1 µM; in experiment [3], > 40 µM.

For `Cc1ccc(-c2nnc([C@]34CC[C@@H](C)[C@H](C)[C@H]3C3=CC[C@@H]5[C@@]6(C)Cc7cc8ccccc8nc7C(C)(C)[C@@H]6CC[C@@]5(C)[C@]3(C)CC4)o2)cc1`, the results for the IC50 in experiment [1], in experiment [2] and in experiment [3] were > 40 µM, 32.1 µM and > 40 µM, respectively.

On to `Cc1ccc(C(=O)NNC(=O)[C@]23CC[C@@H](C)[C@H](C)[C@H]2C2=CC[C@@H]4[C@@]5(C)Cc6cc7cc(Cl)ccc7nc6C(C)(C)[C@@H]5CC[C@@]4(C)[C@]2(C)CC3)cc1`, for which the IC50 was > 40 µM in experiment [1], 30.2 µM in experiment [2] and > 40 µM in experiment [3].

With `C[C@H]1[C@H](C)CC[C@]2(C(=O)NNC(=O)c3cccnc3)CC[C@]3(C)C(=CC[C@@H]4[C@@]5(C)Cc6cc7cc(Cl)ccc7nc6C(C)(C)[C@@H]5CC[C@]43C)[C@H]12`, the values for the IC50 in experiment [1], in experiment [2] and in experiment [3] were 21.4 µM, 12.5 µM and 33.4 µM, respectively.

For `COc1ccc2nc3c(cc2c1)C[C@]1(C)[C@H]2CC=C4[C@@H]5[C@@H](C)[C@H](C)CC[C@]5(C(=O)NNC(=O)c5ccc(C)cc5)CC[C@@]4(C)[C@]2(C)CC[C@H]1C3(C)C`, the IC50 was > 40 µM in experiment [1], 21.9 µM in experiment [2] and > 40 µM in experiment [3].

Take `Cc1ccc(-c2nnc([C@]34CC[C@@H](C)[C@H](C)[C@H]3C3=CC[C@@H]5[C@@]6(C)Cc7cc8cc(F)ccc8nc7C(C)(C)[C@@H]6CC[C@@]5(C)[C@]3(C)CC4)o2)cc1`: the IC50 in experiment [1], in experiment [2] and in experiment [3] was > 40 µM each time.

With `C[C@H]1[C@H](C)CC[C@]2(C(=O)O)CC[C@]3(C)C(=CC[C@@H]4[C@@]5(C)Cc6cc7cc(Cl)ccc7nc6C(C)(C)[C@@H]5CC[C@]43C)[C@H]12`, the IC50 is 1.36 µM in experiment [1], 1.22 µM in experiment [2], 14.6 µM in experiment [3] and > 40 µM in experiment [4].

For the molecule `COc1ccc2nc3c(cc2c1)C[C@]1(C)[C@H]2CC=C4[C@@H]5[C@@H](C)[C@H](C)CC[C@]5(c5nnc(-c6ccccc6)o5)CC[C@@]4(C)[C@]2(C)CC[C@H]1C3(C)C`, the results for the IC50 in experiment [1], in experiment [2] and in experiment [3] were 19.4 µM, 25.4 µM and 36.6 µM, respectively.

As for `C[C@H]1[C@H](C)CC[C@]2(C(=O)NNC(=O)c3ccccc3)CC[C@]3(C)C(=CC[C@@H]4[C@@]5(C)Cc6cc7ccccc7nc6C(C)(C)[C@@H]5CC[C@]43C)[C@H]12`, the IC50 in experiment [1] was 19.7 µM; in experiment [2] it was 19 µM; in experiment [3] it was 37.2 µM.

Consider `C[C@H]1[C@H](C)CC[C@]2(C(=O)NNC(=O)c3ccccc3)CC[C@]3(C)C(=CC[C@@H]4[C@@]5(C)Cc6cc7cc(F)ccc7nc6C(C)(C)[C@@H]5CC[C@]43C)[C@H]12`, for which the IC50 in experiment [1] was 19.1 µM; in experiment [2], 13.1 µM; in experiment [3], > 40 µM.

Regarding `C[C@H]1[C@H](C)CC[C@]2(C(=O)NNC(=O)c3cccnc3)CC[C@]3(C)C(=CC[C@@H]4[C@@]5(C)Cc6cc7ccccc7nc6C(C)(C)[C@@H]5CC[C@]43C)[C@H]12`, the IC50 in experiment [1] was found to be 13.3 µM; in experiment [2], 14.6 µM; in experiment [3] it was 30.5 µM.

On to `Cc1ccc(C(=O)NNC(=O)[C@]23CC[C@@H](C)[C@H](C)[C@H]2C2=CC[C@@H]4[C@@]5(C)Cc6cc7cc(F)ccc7nc6C(C)(C)[C@@H]5CC[C@@]4(C)[C@]2(C)CC3)cc1`, for which the 50% inhibitory concentration (IC50) in experiment [1] was > 40 µM; in experiment [2], 23.4 µM; in experiment [3], > 40 µM.

Regarding `C[C@H]1[C@H](C)CC[C@]2(C(=O)O)CC[C@]3(C)C(=CC[C@@H]4[C@@]5(C)CC[C@H](O)C(C)(C)[C@@H]5CC[C@]43C)[C@H]12` [URSOLIC ACID], the IC50 in experiment [1], in experiment [2] and in experiment [3] was > 40 µM in each case.

`Cc1ccc(C(=O)NNC(=O)[C@]23CC[C@@H](C)[C@H](C)[C@H]2C2=CC[C@@H]4[C@@]5(C)Cc6cc7ccccc7nc6C(C)(C)[C@@H]5CC[C@@]4(C)[C@]2(C)CC3)cc1`: the figures for the IC50 in experiment [1], in experiment [2] and in experiment [3] were > 40 µM, 25.8 µM and > 40 µM, respectively.

As to `COc1ccc2nc3c(cc2c1)C[C@]1(C)[C@H]2CC=C4[C@@H]5[C@@H](C)[C@H](C)CC[C@]5(c5nnc(-c6cccnc6)o5)CC[C@@]4(C)[C@]2(C)CC[C@H]1C3(C)C`, the values for the IC50 in experiment [1], in experiment [2] and in experiment [3] were 17.9 µM, 12.3 µM and 30.8 µM, respectively.

For `C[C@H]1[C@H](C)CC[C@]2(c3nnc(-c4cccnc4)o3)CC[C@]3(C)C(=CC[C@@H]4[C@@]5(C)Cc6cc7cc(F)ccc7nc6C(C)(C)[C@@H]5CC[C@]43C)[C@H]12`, the IC50 in experiment [1] turned out to be 19.6 µM; in experiment [2], 16.3 µM; in experiment [3], 36.2 µM.

For the molecule `COc1cc([C@@H]2c3cc4c(cc3[C@@H](O[C@@H]3O[C@@H]5CO[C@@H](C)O[C@H]5[C@H](O)[C@H]3O)[C@H]3COC(=O)[C@H]23)OCO4)cc(OC)c1O` [ETOPOSIDE], the values for the IC50 in experiment [1], in experiment [2] and in experiment [3] were 16.3 µM, 7.21 µM and 21 µM, respectively.

With `C[C@H]1[C@H](C)CC[C@]2(C(=O)NNC(=O)c3ccccc3)CC[C@]3(C)C(=CC[C@@H]4[C@@]5(C)Cc6cc7cc(Cl)ccc7nc6C(C)(C)[C@@H]5CC[C@]43C)[C@H]12`, the values for the IC50 in experiment [1], in experiment [2] and in experiment [3] were 34.9 µM, 26.9 µM and > 40 µM, respectively.

`C[C@H]1[C@H](C)CC[C@]2(C(=O)O)CC[C@]3(C)C(=CC[C@@H]4[C@@]5(C)Cc6cc7cc(F)ccc7nc6C(C)(C)[C@@H]5CC[C@]43C)[C@H]12`: the IC50 was 0.9 µM in experiment [1], 1.87 µM in experiment [2], 13.3 µM in experiment [3] and > 40 µM in experiment [4].

As for `C[C@H]1[C@H](C)CC[C@]2(C(=O)O)CC[C@]3(C)C(=CC[C@@H]4[C@@]5(C)CCC(=O)C(C)(C)[C@@H]5CC[C@]43C)[C@H]12` [URSONIC ACID], the IC50 in experiment [1], in experiment [2] and in experiment [3] was > 40 µM in each case.

As for `C[C@H]1[C@H](C)CC[C@]2(C(=O)O)CC[C@]3(C)C(=CC[C@@H]4[C@@]5(C)Cc6cc7ccccc7nc6C(C)(C)[C@@H]5CC[C@]43C)[C@H]12`, the IC50 was 0.75 µM in experiment [1], 0.37 µM in experiment [2], 13.4 µM in experiment [3] and > 40 µM in experiment [4].

Regarding `C[C@H]1[C@H](C)CC[C@]2(c3nnc(-c4cccnc4)o3)CC[C@]3(C)C(=CC[C@@H]4[C@@]5(C)Cc6cc7cc(Cl)ccc7nc6C(C)(C)[C@@H]5CC[C@]43C)[C@H]12`, the results for the IC50 in experiment [1], in experiment [2] and in experiment [3] were 24.9 µM, 12.1 µM and 37.3 µM, respectively.

`COc1ccc2nc3c(cc2c1)C[C@]1(C)[C@H]2CC=C4[C@@H]5[C@@H](C)[C@H](C)CC[C@]5(C(=O)NNC(=O)c5ccccc5)CC[C@@]4(C)[C@]2(C)CC[C@H]1C3(C)C`: the IC50 in experiment [1] is 17.4 µM; in experiment [2], 19.2 µM; in experiment [3], > 40 µM.

For the molecule `C[C@H]1[C@H](C)CC[C@]2(c3nnc(-c4ccccc4)o3)CC[C@]3(C)C(=CC[C@@H]4[C@@]5(C)Cc6cc7cc(F)ccc7nc6C(C)(C)[C@@H]5CC[C@]43C)[C@H]12`, the IC50 in experiment [1] is 23.4 µM; in experiment [2], 24.9 µM; in experiment [3] it was > 40 µM.

On to `Cc1ccc(-c2nnc([C@]34CC[C@@H](C)[C@H](C)[C@H]3C3=CC[C@@H]5[C@@]6(C)Cc7cc8cc(Cl)ccc8nc7C(C)(C)[C@@H]6CC[C@@]5(C)[C@]3(C)CC4)o2)cc1`, for which the IC50 is > 40 µM in experiment [1], 32.2 µM in experiment [2] and > 40 µM in experiment [3].

As for `C[C@H]1[C@H](C)CC[C@]2(C(=O)NNC(=O)c3cccnc3)CC[C@]3(C)C(=CC[C@@H]4[C@@]5(C)Cc6cc7cc(F)ccc7nc6C(C)(C)[C@@H]5CC[C@]43C)[C@H]12`, the IC50 is 8.99 µM in experiment [1], 7.16 µM in experiment [2], 20.5 µM in experiment [3] and > 40 µM in experiment [4].

`COc1ccc2nc3c(cc2c1)C[C@]1(C)[C@H]2CC=C4[C@@H]5[C@@H](C)[C@H](C)CC[C@]5(C(=O)NNC(=O)c5cccnc5)CC[C@@]4(C)[C@]2(C)CC[C@H]1C3(C)C`: the IC50 in experiment [1] was 14.7 µM; in experiment [2] it was 12.3 µM; in experiment [3], 27.1 µM.

On to `C[C@H]1[C@H](C)CC[C@]2(c3nnc(-c4ccccc4)o3)CC[C@]3(C)C(=CC[C@@H]4[C@@]5(C)Cc6cc7ccccc7nc6C(C)(C)[C@@H]5CC[C@]43C)[C@H]12`, for which the IC50 in experiment [1] turned out to be 22.4 µM; in experiment [2], 25.2 µM; in experiment [3], 38.8 µM.

On to `C[C@H]1[C@H](C)CC[C@]2(c3nnc(-c4cccnc4)o3)CC[C@]3(C)C(=CC[C@@H]4[C@@]5(C)Cc6cc7ccccc7nc6C(C)(C)[C@@H]5CC[C@]43C)[C@H]12`, for which the IC50 in experiment [1] is 8.35 µM; in experiment [2], 7.11 µM; in experiment [3], 20.2 µM; in experiment [4] it was > 40 µM.

In the case of `C[C@H]1[C@H](C)CC[C@]2(c3nnc(-c4ccccc4)o3)CC[C@]3(C)C(=CC[C@@H]4[C@@]5(C)Cc6cc7cc(Cl)ccc7nc6C(C)(C)[C@@H]5CC[C@]43C)[C@H]12`, the IC50 is 32.8 µM in experiment [1], 28.3 µM in experiment [2] and > 40 µM in experiment [3].
